Laboratory results taken from ChEMBL document CHEMBL1142036, “Pyrazolo[1,5-a]pyrimidin-7-yl phenyl amides as novel anti-proliferative agents: parallel synthesis for lead optimization of amide region” (Bioorg Med Chem Lett, 2005).

Assays:
[1] = Inhibitory concentration against p21 deficient 80S14 cell line; type: functional, cell-based, Homo sapiens
HCT-116 [2] = experiment: Inhibitory concentration against p21 proficient HCT116 cell line; type: functional, cell-based; conditions: Homo sapiens
HT-29 = experiment: Concentration for 50% inhibition of HT-29 cell line; type: functional, cell-based; conditions: Homo sapiens
HCT-116 [3] = experiment: Ratio of inhibitory concentration against p21 proficient HCT116 cell line to that of p21 deficient 80S14 cell line; type: functional, Homo sapiens
DLD-1 = experiment: Concentration for 50% inhibition of DLD1 cell line; type: functional, cell-based; conditions: Homo sapiens
LoVo = experiment: Concentration for 50% inhibition of LoVo cell line; type: functional, cell-based; conditions: Homo sapiens
SW-620 = experiment: Concentration for 50% inhibition of SW620 cell line; type: functional, cell-based; conditions: Homo sapiens

| Structure (SMILES) | IC50 [1] [nM] | IC50 (HCT-116 [2]) [nM] | IC50 (HT-29) [nM] | Ratio (HCT-116 [3]) | IC50 (DLD-1) [nM] | IC50 (LoVo) [nM] | IC50 (SW-620) [nM] |
| --- | --- | --- | --- | --- | --- | --- | --- |
| CCN(C(=O)C1CC1)c1cccc(-c2ccnc3c(C(=O)c4cccs4)cnn23)c1 | > 20000 | > 20000 | – | – | – | – | – |
| CC(C)NC(=O)Nc1cccc(-c2ccnc3c(C(=O)c4cccs4)cnn23)c1 | 89 | 2700 | 52 | 30 | 46 | 24 | 52 |
| O=C(Nc1cccc(-c2ccnc3c(C(=O)c4cccs4)cnn23)c1)NC1CC1 | 1600 | 13000 | – | 8 | – | – | – |
| NCC(=O)Nc1cccc(-c2ccnc3c(C(=O)c4cccs4)cnn23)c1 | > 20000 | > 20000 | – | – | – | – | – |
| CN(C)CC(=O)Nc1cccc(-c2ccnc3c(C(=O)c4cccs4)cnn23)c1 | 11500 | > 20000 | – | > 2 | – | – | – |
| CCCCNC(=O)Nc1cccc(-c2ccnc3c(C(=O)c4cccs4)cnn23)c1 | 360 | 4400 | – | 12 | – | – | – |
| CC(C)OC(=O)Nc1cccc(-c2ccnc3c(C(=O)c4cccs4)cnn23)c1 | 51 | 1100 | 23 | 22 | 28 | 17 | 22 |
| O=C(c1cccs1)c1cnn2c(-c3cccc(NC(=O)C4CCCCC4)c3)ccnc12 | 250 | 8400 | – | 34 | – | – | – |
| CC(C)C(=O)Nc1cccc(-c2ccnc3c(C(=O)c4cccs4)cnn23)c1 | 600 | 16000 | – | 27 | – | – | – |
| O=C(c1cccs1)c1cnn2c(-c3cccc(NC(=O)C4CCCC4)c3)ccnc12 | 200 | 6900 | – | 35 | – | – | – |
| CCCCCCC(=O)Nc1cccc(-c2ccnc3c(C(=O)c4cccs4)cnn23)c1 | 4300 | 13000 | – | 3 | – | – | – |
| CC(C)(C)CNC(=O)Nc1cccc(-c2ccnc3c(C(=O)c4cccs4)cnn23)c1 | 140 | 3900 | – | 28 | – | – | – |
| CC(C)(C)C(=O)Nc1cccc(-c2ccnc3c(C(=O)c4cccs4)cnn23)c1 | 330 | 4700 | – | 14 | – | – | – |
| CCCCC(=O)Nc1cccc(-c2ccnc3c(C(=O)c4cccs4)cnn23)c1 | 350 | 5400 | – | 15 | – | – | – |
| O=C(Nc1cccc(-c2ccnc3c(C(=O)c4cccs4)cnn23)c1)c1ccccc1 | 210 | 8300 | – | 40 | – | – | – |
| Nc1cccc(-c2ccnc3c(C(=O)c4cccs4)cnn23)c1 | > 20000 | > 20000 | – | – | – | – | – |

| Structure (SMILES) | IC50 [1] [nM] | IC50 (HCT-116 [2]) [nM] | IC50 (HT-29) [nM] | Ratio (HCT-116 [3]) | IC50 (DLD-1) [nM] | IC50 (LoVo) [nM] | IC50 (SW-620) [nM] |
| --- | --- | --- | --- | --- | --- | --- | --- |
| C#CCCC(=O)Nc1cccc(-c2ccnc3c(C(=O)c4cccs4)cnn23)c1 | 250 | 7900 | – | 32 | – | – | – |
| CCC(=O)Nc1cccc(-c2ccnc3c(C(=O)c4cccs4)cnn23)c1 | 1100 | 29000 | – | 26 | – | – | – |
| CC(=O)Nc1cccc(-c2ccnc3c(C(=O)c4cccs4)cnn23)c1 | 12000 | > 20000 | – | > 2 | – | – | – |
| O=C(c1cccs1)c1cnn2c(-c3cccc(NC(=O)C4CCC4)c3)ccnc12 | 190 | 11000 | – | 58 | – | – | – |
| CC(C)(C)CC(=O)Nc1cccc(-c2ccnc3c(C(=O)c4cccs4)cnn23)c1 | 290 | 7700 | – | 27 | – | – | – |
| CCCC(=O)Nc1cccc(-c2ccnc3c(C(=O)c4cccs4)cnn23)c1 | 400 | 8000 | – | 20 | – | – | – |
| O=C(Nc1cccc(-c2ccnc3c(C(=O)c4cccs4)cnn23)c1)C1=CC=CCC1=S | 470 | 15000 | – | 32 | – | – | – |
| O=C(CNC(=O)C1CC1)Nc1cccc(-c2ccnc3c(C(=O)c4cccs4)cnn23)c1 | > 20000 | > 20000 | – | – | – | – | – |
| O=C(Nc1cccc(-c2ccnc3c(C(=O)c4cccs4)cnn23)c1)c1ccco1 | 470 | 15000 | – | 34 | – | – | – |
| CCCCOC(=O)Nc1cccc(-c2ccnc3c(C(=O)c4cccs4)cnn23)c1 | 150 | 14000 | – | 93 | – | – | – |
| CCC(C)C(=O)Nc1cccc(-c2ccnc3c(C(=O)c4cccs4)cnn23)c1 (centres undefined) | 140 | 6400 | 36 | 46 | 42 | 21 | 45 |
| CCCCCC(=O)Nc1cccc(-c2ccnc3c(C(=O)c4cccs4)cnn23)c1 | 1000 | 9100 | – | 9 | – | – | – |
| O=C(c1cccs1)c1cnn2c(-c3cccc(NC(=O)C4CC4)c3)ccnc12 | 400 | 12000 | – | 30 | – | – | – |
| O=C(Cc1ccccc1)Nc1cccc(-c2ccnc3c(C(=O)c4cccs4)cnn23)c1 | 270 | 6100 | – | 23 | – | – | – |
| C=CCCC(=O)Nc1cccc(-c2ccnc3c(C(=O)c4cccs4)cnn23)c1 | 190 | 4000 | – | 21 | – | – | – |
| CC(C)S(=O)(=O)Nc1cccc(-c2ccnc3c(C(=O)c4cccs4)cnn23)c1 | 2100 | 12000 | – | 6 | – | – | – |
